The values below come from patent publication US7750003B2, “Compounds-943” (AstraZeneca AB, priority 2006, dated 2010).

recombinant mTOR (FLAG-tagged, residues 1362-2549), sequence (P42345 1362-2549): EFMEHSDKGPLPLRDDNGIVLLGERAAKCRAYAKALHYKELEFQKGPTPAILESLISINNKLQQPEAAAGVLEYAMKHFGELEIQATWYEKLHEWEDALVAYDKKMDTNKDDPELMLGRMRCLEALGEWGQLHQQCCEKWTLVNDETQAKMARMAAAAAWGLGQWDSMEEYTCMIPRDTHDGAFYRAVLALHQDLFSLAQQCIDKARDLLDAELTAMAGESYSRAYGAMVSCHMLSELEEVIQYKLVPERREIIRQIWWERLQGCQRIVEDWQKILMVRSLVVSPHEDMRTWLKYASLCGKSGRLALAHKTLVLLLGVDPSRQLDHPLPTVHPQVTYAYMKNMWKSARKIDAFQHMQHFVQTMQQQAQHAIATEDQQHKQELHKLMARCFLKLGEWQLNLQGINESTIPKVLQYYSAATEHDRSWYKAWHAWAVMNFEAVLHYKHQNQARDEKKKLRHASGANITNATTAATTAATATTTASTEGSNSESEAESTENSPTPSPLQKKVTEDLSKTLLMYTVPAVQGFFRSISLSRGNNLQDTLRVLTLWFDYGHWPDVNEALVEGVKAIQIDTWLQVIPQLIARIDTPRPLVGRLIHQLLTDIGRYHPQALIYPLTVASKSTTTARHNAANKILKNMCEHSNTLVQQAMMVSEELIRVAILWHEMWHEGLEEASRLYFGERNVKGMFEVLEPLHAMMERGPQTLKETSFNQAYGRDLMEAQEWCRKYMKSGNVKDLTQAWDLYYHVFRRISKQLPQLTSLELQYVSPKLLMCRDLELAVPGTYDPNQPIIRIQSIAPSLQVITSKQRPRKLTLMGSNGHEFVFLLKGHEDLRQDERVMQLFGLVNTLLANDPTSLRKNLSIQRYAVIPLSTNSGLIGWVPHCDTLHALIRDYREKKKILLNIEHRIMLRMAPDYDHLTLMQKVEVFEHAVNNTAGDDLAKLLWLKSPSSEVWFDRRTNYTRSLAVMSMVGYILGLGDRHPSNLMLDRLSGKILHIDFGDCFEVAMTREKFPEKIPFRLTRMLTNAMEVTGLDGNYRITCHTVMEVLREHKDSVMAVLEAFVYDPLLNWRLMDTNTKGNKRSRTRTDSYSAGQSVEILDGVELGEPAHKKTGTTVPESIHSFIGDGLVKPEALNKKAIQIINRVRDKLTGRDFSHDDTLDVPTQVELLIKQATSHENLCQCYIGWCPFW

The assay addresses recombinant mTOR (FLAG-tagged, residues 1362-2549) (Homo sapiens, UniProt P42345). Description: In vitro mTOR kinase assay (Test (a), AlphaScreen). It counts as biochemical. Particulars: ATP 20 μM, read-out: Test (a): IC50 versus mTOR kinase. The procedure:
(a) In Vitro mTOR Kinase Assay
Following expression in the mammalian HEK293 cell line, expressed protein was purified using the FLAG epitope tag using standard purification techniques.
Aliquots (2 μl) of each compound dilution were placed into a well of a Greiner 384-well low volume (LV) white polystyrene plate (Greiner Bio-one).
These assay solutions were incubated for 2 hours at room temperature.
The resultant signals arising from laser light excitation at 680 nm were read using a Packard Envision instrument.
The phosphorylated biotinylated peptide that is associated with AlphaScreen Streptavidin donor beads forms a complex with the p70 S6 Kinase (T389) 1A5 Monoclonal Antibody that is associated with Alphascreen Protein A acceptor beads. Upon laser light excitation at 680 nm, the donor bead: acceptor bead complex produces a signal that can be measured. Accordingly, the presence of mTOR kinase activity results in an assay signal. In the presence of an mTOR kinase inhibitor, signal strength is reduced.
mTOR enzyme inhibition for a given test compound was expressed as an IC50 value.
A general note: Alpha assays give light when donor and acceptor beads are brought close together.
`C[C@H]1COCCN1c1cc(CS(C)(=O)=O)nc(-c2ccc(NC(=O)Nc3ccc(F)cc3)c(F)c2)n1` [Example 1f, 1-[2-fluoro-4-[4-[(3S)-3-methylmorpholin-4-yl]-6-(methylsulfonylmethyl)pyrimidin-2-yl]phenyl]-3-(4-fluorophenyl)urea]: the IC50 (in general, the midpoint of a concentration-inhibition curve) was found to be 360 nM.
To `CCNC(=O)NC1CCN(c2nc(N3CCOC[C@@H]3C)cc(C(C)(C)S(C)(=O)=O)n2)CC1` [Example 24o, 1-ethyl-3-[1-[4-[(3S)-3-methylmorpholin-4-yl]-6-(2-methylsulfonylpropan-2-yl)pyrimidin-2-yl]-4-piperidyl]urea] belongs 3400 nM; to `CNC(=O)Nc1ccc(-c2nc(CS(=O)(=O)c3ccc(NC(C)=O)cc3)cc(N3CCOC[C@@H]3C)n2)cc1` [Example 19c, N-[4-[[2-[4-(methylcarbamoylamino)phenyl]-6-[(3S)-3-methylmorpholin-4-yl]pyrimidin-4-yl]methylsulfonyl]phenyl]acetamide], 22 nM.
For `CC(C)NC(=O)Nc1ncc(-c2nc(CS(C)(=O)=O)cc(N3CCOC[C@@H]3C)n2)s1` [Example 46a, 1-[5-[4-[(3S)-3-methylmorpholin-4-yl]-6-(methylsulfonylmethyl)pyrimidin-2-yl]-1,3-thiazol-2-yl]-3-propan-2-yl-urea], the IC50 was 350 nM.
To `CCNC(=O)Nc1ccc(-c2nc(CS(=O)(=O)C(C)C)cc(N3CCOCC3)n2)cc1` [Example 20l, 1-ethyl-3-[4-[4-morpholin-4-yl-6-(propan-2-ylsulfonylmethyl)pyrimidin-2-yl]phenyl]urea] belongs 74 nM.
The result for `CCNC(=O)Nc1cccc(-c2nc(CS(C)(=O)=O)cc(N3CCOC[C@@H]3C)n2)c1` [Example 8h, 3-Ethyl-1-[3-[4-[(3S)-3-methylmorpholin-4-yl]-6-(methylsulfonylmethyl)pyrimidin-2-yl]phenyl]urea] reads 920 nM; that for `CS(=O)(=O)Cc1cc(N2CCOCC2)nc(-c2ccc(NC(=O)Nc3ccccc3)cc2)n1` [Example 7h, 1-[4-[4-(methylsulfonylmethyl)-6-morpholin-4-yl-pyrimidin-2-yl]phenyl]-3-phenyl-urea], 240 nM.
The result for `C[C@H]1COCCN1c1cc(CNC2CC2)nc(-c2ccc(NC(=O)NCc3cnn(C)c3)cc2)n1` [Example 52a, 1-[4-[4-[(cyclopropylamino)methyl]-6-[(3S)-3-methylmorpholin-4-yl]pyrimidin-2-yl]phenyl]-3-[(1-methylpyrazol-4-yl)methyl]urea] reads 330 nM; that for `CCNC(=O)Nc1ccc(-c2nc(CS(C)(=O)=O)cc(N3CCOC[C@@H]3C)n2)cc1F` [Example 4, 1-Ethyl-3-[2-fluoro-4-[4-[(3S)-3-methylmorpholin-4-yl]-6-(methylsulfonylmethyl)pyrimidin-2-yl]phenyl]urea], 31 nM; that for `CNC(=O)Nc1ccc(-c2nc(CS(=O)(=O)c3ccc(F)cc3)cc(N3CCOC[C@@H]3C)n2)cc1` [Example 19b, 1-[4-[4-[(4-fluorophenyl)sulfonylmethyl]-6-[(3S)-3-methylmorpholin-4-yl]pyrimidin-2-yl]phenyl]-3-methyl urea], 33 nM.
`CNC(=O)Nc1ccc(-c2nc(CS(=O)(=O)c3nccn3C)cc(N3CCOC[C@@H]3C)n2)cc1` [Example 33, 3-Methyl-1-[4-[4-[(1-methylimidazol-2-yl)sulfonylmethyl]-6-[(3S)-3-methylmorpholin-4-yl]pyrimidin-2-yl]phenyl]urea]: the IC50 came out at 840 nM.
To `CCNC(=O)Nc1ccn(-c2nc(CS(C)(=O)=O)cc(N3CCOC[C@@H]3C)n2)n1` [Example 24l, 1-ethyl-3-[1-[4-[(3S)-3-methylmorpholin-4-yl]-6-(methylsulfonylmethyl)pyrimidin-2-yl]pyrazol-3-yl]urea] belongs 840 nM; to `CNC(=O)Nc1ccc(-c2nc(CS(=O)(=O)c3nccs3)cc(N3CCOC[C@@H]3C)n2)cc1` [Example 33g, 3-methyl-1-[4-[4-[(3S)-3-methylmorpholin-4-yl]-6-(1,3-thiazol-2-ylsulfonylmethyl)pyrimidin-2-yl]phenyl]urea], 21 nM.
